Data from patent US8044037B2, “Modified phosphocalcic compound, injectable composition containing same” (Centre National de la Recherche Scientifique, priority 2002, dated 2011).

Tested on: rabbit osteoclast model (osteoclast resorption)
Assay: Supernatants of incubated CDA samples tested in rabbit osteoclast model (FIG. 6)
Format: cell-based
Details: supernatant after 96 hours at 37° C. (200 mg in 5 ml culture medium) or 10^−6 M zoledronate solution; pure, diluted 10-, 100- and 1000-fold
Protocol: Several samples of CDA (200 mg) modified by adding zoledronate in accordance with the process of example 1 and several samples of unmodified CDA were incubated in 5 ml of culture medium at 37° C. After incubation for 96 hours, the various supernatants were collected and used pure, diluted 10-fold, 100-fold and 1000-fold in a rabbit osteoclast model.
The results are represented in FIG. 6, in which the percentage of resorption R is indicated on the y-axis, the conditions being indicated on the x-axis. Among the conditions: • “vehicle” means the culture medium alone • “pure CDA” means the supernatant derived from the incubation of pure CDA in the culture medium; “CDA 1/10”, “CDA 1/100” and “CDA 1/1000” mean, respectively, the solution referred to above and diluted to 1/10, 1/100 and 1/1000 • “pure zo” means a 10^−6 M solution of zoledronate in the culture medium, “zo 1/10”, “zo 1/100” and “zo 1/1000” mean, respectively, the solution referred to above and diluted to 1/10, 1/100 and 1/1000 • “pure CDAzo” means the supernatant derived from the incubation of zoledronate-containing CDA in the culture medium, and “CDAzo 1/10”, “CDAzo 1/100” and “CDAzo 1/1000” mean, respectively, the solution referred to above and diluted to 1/10, 1/100 and 1/1000.

O=P(O)(O)C(O)(Cn1ccnc1)P(=O)(O)O [zoledronate]
effect on osteoclast resorption (percentage of resorption R, FIG. 6): inhibits resorption according to a dose/effect relationship
